The experiment addresses T1, human Bradykinin B1 receptor (Homo sapiens, UniProt P46663).
T1 construct: host or cells: CHO-K1
T1 sequence (P46663 1-353): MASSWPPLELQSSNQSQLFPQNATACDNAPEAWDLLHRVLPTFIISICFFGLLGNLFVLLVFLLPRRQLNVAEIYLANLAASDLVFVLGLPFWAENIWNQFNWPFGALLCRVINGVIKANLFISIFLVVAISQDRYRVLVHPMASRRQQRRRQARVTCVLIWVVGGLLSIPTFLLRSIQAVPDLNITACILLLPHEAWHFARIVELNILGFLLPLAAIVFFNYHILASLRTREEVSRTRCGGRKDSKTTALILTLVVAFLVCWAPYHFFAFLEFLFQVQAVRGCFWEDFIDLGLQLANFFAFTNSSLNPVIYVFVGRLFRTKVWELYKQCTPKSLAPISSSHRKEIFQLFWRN
The experiment can be described thus: Calcium flux Assay (FLIPR) with cells expressing human Bradykinin B1 receptor (hB1). As to conditions: absence of 0.1% BSA in assay buffer; CHO-K1 cell line expressing human B1 receptor; agonist Lys-(Des-Arg)-Bradykinin; read-out: hB1 free IC50. Format: cell-based. Here is the method: The potency to inhibit the Bradykinin B1 receptor was determined for the compound examples of this invention in a cell-based fluorescent calcium-mobilisation assay. The assay measures the ability of compound examples to inhibit Bradykinin B1 receptor agonist-induced increase of intracellular free Ca^2+ in the cell line expressing Bradykinin B1 receptor. Specifically, calcium indicator-loaded cells are pre-incubated in the absence or presence of different concentrations of compound examples followed by the stimulation with a selective Bradykinin B1 receptor agonist peptide. The change of the intracellular Ca^2+ concentration is monitored with a fluorescent plate reader FLIPR^TETRA®
Calcium flux Assays (FLIPR) with cells expressing human Bradykinin B1 receptor (hB1) Calcium flux Assay (FLIPR) with recombinant cells for Bradykinin B1 receptor antagonist, either in the presence (hB1 IC50) or absence (hB1 free IC50) of 0.1% Bovine Serum Albumin (BSA) in assay buffer.
CHO—K1 cell line expressing human B1 receptor was purchased from Euroscreen (Gosselies, Belgium, with reference name hB1-D1). The cells were grown in Nutrient Mixture Ham's F12 (Sigma) containing 10% Foetal bovine serum (Sigma) and 400 μg/mL G418 (Sigma), 5 μg/mL puromycin (Sigma).
For the calcium flux assay, 80% confluent cells were detached from the culture vessels with Versene (Gibco), and seeded into 384-well plates (Cell binding Surface; Corning, N.Y.; #3683) at a density of 15,000 cells per well. Cells were seeded in a volume of 50 μL in medium without antibiotics and incubated overnight in a humidified atmosphere with 5% CO2 at 37° C. […] The calcium indicator loaded cells were incubated at 37° C. for 2 hrs. Extracellular dye was then removed and each well was filled with 45 μL of assay buffer. Cell plates were kept in dark until used. Example compounds were assayed at 8 concentrations in triplicate. Serial 10-fold dilutions in 100% DMSO were made at a 100-times higher concentration than the final concentration, and then diluted 1:10 in assay buffer. 5 μL of each diluted compound was added to the well of cell plates (yielding final concentration with 1% DMSO), and incubated for 30 min at 28° C. before the addition of B1 receptor agonist on the FLIPR instrument.
Agonist plates contained the agonist Lys-(Des-Arg)-Bradykinin (Bachem, Brackley) at 3.5×EC90 in assay buffer with 1% DMSO. The addition of agonist 20 μl per well to the assay plate was carried out on the FLIPR instrument while continuously monitoring Ca^2+-dependent fluorescence at 538 nm. A peptide antagonist Lys-(Des-Arg-Leu)-Bradykinin (Bachem, Brackley) at 20 μM was used to determine the full inhibition as control.
Peak fluorescence was used to determine the response to agonist obtained at each concentration of example compound by the following equation:
% Response=100*(RFU(example compound)−RFU(control))/(RFU(DMSO)−RFU(control)) • RFU means relative fluorescence units. • Control means full inhibition by the peptide antagonist Lys-(Des-Arg-Leu)-Bradykinin at 20
The response values were plotted against the logarithm of the example compound concentrations. The example compounds were tested in triplicates per plate and mean values were plotted in Excel XLfit to determine IC50 values, percentage of maximal inhibition and the Hill slopes.
IC50 values of example compounds in Calcium flux Assay (FLIPR) as shown in table 1 were determined according to the protocol described above in the absence of 0.1% BSA in assay buffer.
Background: Calcium flux is commonly read through the fluorescence of an indicator in the cells.

As for `CN(C(=O)c1ccc(NC(=O)C2(c3ccc(C(F)(F)F)cc3F)CC2)cc1-c1nnn[nH]1)C1CCCCC1` [Example 43, N-cyclohexyl-4-[({1-[2-fluoro-4-(trifluoromethyl)phenyl]cyclopropyl}carbonyl)amino]-N-methyl-2-(1H-tetrazol-5-yl)benzamide], the IC50 turned out to be 50 nM.

Turning to `O=C(NCC1CCCCC1)c1ccc(NC(=O)C2(c3ccc(C(F)(F)F)cc3F)CC2)cc1-c1nnn[nH]1` [Example 44, N-(cyclohexylmethyl)-4-[({1-[2-fluoro-4-(trifluoromethyl)phenyl]cyclopropyl}carbonyl)amino]-2-(1H-tetrazol-5-yl)benzamide], the IC50 is 13 nM.

For `O=C(NC1CCOCC1)c1ccc(NC(=O)C2(c3ccc(C(F)(F)F)cc3F)CC2)cc1-c1nnn[nH]1` [Example 45, 4-[({1-[2-Fluoro-4-(trifluoromethyl)phenyl]cyclopropyl}carbonyl)amino]-N-(tetrahydro-2H-pyran-4-yl)-2-(1H-tetrazol-5-yl)benzamide], the half-inhibitory concentration (IC50) turned out to be 133 nM.

Regarding `CN(C(=O)c1ccc(NC(=O)C2(c3cccc(Cl)c3)CC2)cc1-c1nnn[nH]1)C1CCOCC1` [Example 46, 4-({[1-(3-Chlorophenyl)cyclopropyl]carbonyl}amino)-N-methyl-N-(tetrahydro-2H-pyran-4-yl)-2-(1H-tetrazol-5-yl)benzamide], the IC50 stood at 3300 nM.

With `CN(C(=O)c1ccc(NC(=O)C2(c3ccc(C(F)(F)F)cc3F)CC2)cc1-c1nnn[nH]1)C1CCOCC1` [Example 47, 4-[({1-[2-Fluoro-4-(trifluoromethyl)phenyl]cyclopropyl}carbonyl)amino]-N-methyl-N-(tetrahydro-2H-pyran-4-yl)-2-(1H-tetrazol-5-yl)benzamide], the concentration for half-maximal inhibition (IC50) was found to be 445 nM.

Consider `O=C(NCC1CCOCC1)c1ccc(NC(=O)C2(c3ccc(C(F)(F)F)cc3F)CC2)cc1-c1nnn[nH]1` [Example 48, 4-[({1-[2-Fluoro-4-(trifluoromethyl)phenyl]cyclopropyl}carbonyl)amino]-N-(tetrahydro-2H-pyran-4-ylmethyl)-2-(1H-tetrazol-5-yl)benzamide], for which the 50% inhibitory concentration (IC50) was 60 nM.

On to `CN(CC1CCOCC1)C(=O)c1ccc(NC(=O)C2(c3ccc(C(F)(F)F)cc3F)CC2)cc1-c1nnn[nH]1` [Example 49, 4-[({1-[2-Fluoro-4-(trifluoromethyl)phenyl]cyclopropyl}carbonyl)amino]-N-methyl-N-(tetrahydro-2H-pyran-4-ylmethyl)-2-(1H-tetrazol-5-yl)benzamide], for which the concentration for half-maximal inhibition (IC50) came out at 1800 nM.

As to `COC[C@@H](C)NC(=O)c1ccc(NC(=O)C2(c3ccc(C(F)(F)F)cc3F)CC2)cc1-c1nnn[nH]1` [Example 50, 4-[({1-[2-Fluoro-4-(trifluoromethyl)phenyl]cyclopropyl}carbonyl)amino]-N-[(2R)-1-methoxypropan-2-yl]-2-(1H-tetrazol-5-yl)benzamide], the half-inhibitory concentration (IC50) came out at 89 nM.

For the compound `COC[C@H](C)NC(=O)c1ccc(NC(=O)C2(c3ccc(C(F)(F)F)cc3F)CC2)cc1-c1nnn[nH]1` [Example 51, 4-[({1-[2-Fluoro-4-(trifluoromethyl)phenyl]cyclopropyl}carbonyl)amino]-N-[(2S)-1-methoxypropan-2-yl]-2-(1H-tetrazol-5-yl)benzamide], the half-inhibitory concentration (IC50) was determined as 409 nM.

As to `COC(C)(C)CNC(=O)c1ccc(NC(=O)C2(c3ccc(C(F)(F)F)cc3F)CC2)cc1-c1nnn[nH]1` [Example 52, 4-[({1-[2-Fluoro-4-(trifluoromethyl)phenyl]cyclopropyl}carbonyl)amino]-N-(2-methoxy-2-methylpropyl)-2-(1H-tetrazol-5-yl)benzamide], the half-inhibitory concentration (IC50) is 143 nM.

As for `O=C(N[C@@H]1CCOC1)c1ccc(NC(=O)C2(c3ccc(C(F)(F)F)cc3F)CC2)cc1-c1nnn[nH]1` [Example 53, 4-[({1-[2-Fluoro-4-(trifluoromethyl)phenyl]cyclopropyl}carbonyl)amino]-N-[(3R)-tetrahydrofuran-3-yl]-2-(1H-tetrazol-5-yl)benzamide], the IC50 was 3610 nM.

As to `O=C(N[C@H]1CCOC1)c1ccc(NC(=O)C2(c3ccc(C(F)(F)F)cc3F)CC2)cc1-c1nnn[nH]1` [Example 54, 4-[({1-[2-Fluoro-4-(trifluoromethyl)phenyl]cyclopropyl}carbonyl)amino]-N-[(3S)-tetrahydrofuran-3-yl]-2-(1H-tetrazol-5-yl)benzamide], the IC50 was found to be 1530 nM.

As to `CC(C)CN(C)C(=O)c1ccc(NC(=O)C2(c3ccc(C(F)(F)F)cc3F)CC2)cc1-c1nnn[nH]1` [Example 55, 4-[({1-[2-Fluoro-4-(trifluoromethyl)phenyl]cyclopropyl}carbonyl)amino]-N-isobutyl-N-methyl-2-(1H-tetrazol-5-yl)benzamide], the half-inhibitory concentration (IC50) stood at 1770 nM.

On to `Cc1ccc(NC(=O)c2ccc(NC(=O)C3(c4ccc(C(F)(F)F)cc4F)CC3)cc2-c2nnn[nH]2)nc1` [Example 56, 4-[({1-[2-Fluoro-4-(trifluoromethyl)phenyl]cyclopropyl}carbonyl)amino]-N-(5-methylpyridin-2-yl)-2-(1H-tetrazol-5-yl)benzamide], for which the IC50 came out at 50 nM.

Turning to `Cc1ccc(NC(=O)c2ccc(NC(=O)C3(c4ccc(C(F)(F)F)cc4F)CC3)cc2-c2nnn[nH]2)cn1` [Example 57, 4-[({1-[2-Fluoro-4-(trifluoromethyl)phenyl]cyclopropyl}carbonyl)amino]-N-(6-methylpyridin-3-yl)-2-(1H-tetrazol-5-yl)benzamide], the IC50 was determined as 29 nM.

`CCOC(=O)c1c(F)cc(NC(=O)C2(c3ccc(C(F)(F)F)cc3F)CC2)cc1-c1nnn[nH]1` [Example 59, Ethyl 2-fluoro-4-[({1-[2-fluoro-4-(trifluoromethyl)phenyl]cyclopropyl}-carbonyl)amino]-6-(1H-tetrazol-5-yl)benzoate]: the half-inhibitory concentration (IC50) came to 5 nM.

For `CCOC(=O)c1c(C)cc(NC(=O)C2(c3ccc(C(F)(F)F)cc3F)CC2)cc1-c1nnn[nH]1` [Example 60, Ethyl 4-[({1-[2-fluoro-4-(trifluoromethyl)phenyl]cyclopropyl}carbonyl)amino]-2-methyl-6-(1H-tetrazol-5-yl)benzoate], the IC50 turned out to be 26 nM.

Consider `O=C(OC1CCCC1)c1c(F)cc(NC(=O)C2(c3ccc(C(F)(F)F)cc3F)CC2)cc1-c1nnn[nH]1` [Example 61, Cyclopentyl 2-fluoro-4-[({1-[2-fluoro-4-(trifluoromethyl)phenyl]cyclopropyl}-carbonyl)amino]-6-(1H-tetrazol-5-yl)benzoate], for which the half-inhibitory concentration (IC50) is 2 nM.

As for `O=C(O[C@H]1CCOC1)c1c(F)cc(NC(=O)C2(c3ccc(C(F)(F)F)cc3F)CC2)cc1-c1nnn[nH]1` [Example 62, (3S)-tetrahydrofuran-3-yl 2-fluoro-4-[({1-[2-fluoro-4-(trifluoromethyl)phenyl]cyclopropyl}carbonyl)amino]-6-(1H-tetrazol-5-yl)benzoate], the 50% inhibitory concentration (IC50) was 2 nM.

For the compound `Cc1ccc(NC(=O)c2c(F)cc(NC(=O)C3(c4ccc(C(F)(F)F)cc4F)CC3)cc2-c2nnn[nH]2)nc1` [Example 63, 2-Fluoro-4-[({1-[2-fluoro-4-(trifluoromethyl)phenyl]cyclopropyl}carbonyl)amino]-N-(5-methylpyridin-2-yl)-6-(1H-tetrazol-5-yl)benzamide], the IC50 was 51 nM.

What is called IC50 is the concentration that inhibits the measured activity by half.

Values taken from patent US20190177284A1, “TETRAZOLYL-CONTAINING CYCLOPROPANECARBOXAMIDES” (Bayer Pharma Aktiengesellschaft, priority 2017, published 2019).
